Assay results as given in EP0702683B1, “06-SUBSTITUTED GUANINE DERIVATIVES, A PROCESS FOR THEIR PREPARATION AND THEIR USE IN TREATING TUMOUR CELLS” (Cancer Research Technology Limited, priority 1993, dated 1994).
Entries after “also recorded” stand apart in the source; their conditions may differ.

Experiments:
[1] = Toxicity of inactivator in combination with BCNU in xenograft-bearing mice (survival); type: in vivo, nude mice; conditions: Figs. 9-13, in words
Method: (§1) 0X6 OPT, England (OLAC mice). […] For this reason lower doses were administered.
(§2) Xenograft tumour measurements were taken every 1-2 days by workers using digital calipers. Tumour volume was calculated using the formula (h x w x 1) π/6. The experimental animals were also weighed every 1-2 days. Measurements continued until tumours in the control animals reached the maximum allowable volume (i.e. 1cm x 1cm x 1cm).

[2] = test system: A375 tumour xenografts; test: Sensitization of A375 tumour xenografts to BCNU (tumour volume); type: in vivo, nude mice; conditions: 30 or 60 mg/kg i.p. 60 - 90 minutes prior to 10 - 25 mg/kg BCNU, Figs. 9-13, in words
Method: as §1
A375M (human melanoma) cells were grown in DMEM containing 10% fetal bovine serum. The cells were prepared for in vivo inoculation by incubation with 0.01% trypsin.
Cells (10^6) in 100µl of PBS were injected subcutaneously into the right-hand flank of 8-10 week old nu/nu athymic mice. These cells were allowed to develop into a tumour for 3-4 weeks for passaging into experimental animals. Tumour blocks measuring 2mm x 2mm x 2mm were implanted subcutaneously on the right hand flank. These animals were ready for use in inactivator experiments in 7-10 days.
as §2

## Nc1nc(OCc2cccs2)c2nc[nH]c2n1 [B.4205, O^6-thenylguanine]
[1]
  toxicity in combination with BCNU in nude mice: substantially less toxic; also recorded: very little effect
[2]
  reducing tumour volume / sensitising human melanoma xenografts to BCNU, compared with BeG: comparable to 0^6-benzylguanine (BeG)
